{"source": "patent US11278024B2", "about": "(priority 2017, dated 2022)", "format_in_all_cases": "in vivo", "key": {"[1]": {"tested_on": "root-knot nematodes (Meloidogyne spp.)", "test": "Petri dish nematocidal activity on hatched root-knot nematodes", "settings": "for Number of killed root-knot nematodes: 15 nematodes; for Nematocidal efficiency (%): within 3 days; for Nematocidal efficiency on root-knot nematodes (%): geraniol concentration 685 ppm", "protocol": "The nematodes used in the experiments were Meloidogyne spp. (hatched from eggs from infected roots of melons from farms in Seongju-gun, Gyeongsangbuk-do, Korea), and were propagated using tomato plants from Ecowin Co. Ltd. and used for experiments.\nThe tomato roots infected with root-knot nematodes were washed with running water and were then cut to a size of about 1 cm, after which 50 g of the cut roots was placed in a 500 ml round-bottom flask containing 200 ml of 0.5% sodium hypochloride (NaOCl), stopped with a rubber stopper, and shaken vigorously for 3 min to sterilize the roots and at the same time burst the egg bag. Thereafter, the solution was passed through a sieve in which 200 mesh was superimposed on 500 mesh, and washed with distilled water, so the eggs of the root-knot nematodes from which the NaOCl solution was removed were recovered.\nNext, the eggs of the root-knot nematodes thus recovered were surface-sterilized with 0.5% NaOCl for 10 min, washed thoroughly with sterile distilled water, placed in a phosphate buffer (1%) containing sterilized normal saline, and hatched in an incubator at 25° C.\nThereafter, […], 2 to 3 ml thereof was poured into a Petri dish, after which 15 hatched root-knot nematodes were placed in the Petri dish, and nematocidal activity was measured and the results thereof are shown in Table 1 below.\nNematocidal activity on root-knot nematodes (treatment concentration: […]) was evaluated in the same manner as in Example 1, with the exception that Ostericum koreanum, clove, Myristica fragrans, Acorus gramineus, Kaempferia galanga and Amomum cardamomum L. extracts were used, in lieu of the naturally derived materials. Here, Ostericum koreanum, clove, Myristica fragrans, Acorus gramineus, Kaempferia galanga and Amomum cardamomum L. were purchased from a medicinal plant retailer located in the Daegu area and then extracted using ethanol according to a typical method. Specifically, each medicine was finely crushed, mixed with ethanol at a ratio of 1:5, and extracted at 180 rpm at room temperature for 48 hr, after which as much ethanol as possible was concentrated using a concentrator.\nNematocidal activity on root-knot nematodes was evaluated in the same manner as in Example 1, with the exception that a neem extract was used in lieu of the naturally derived materials."}, "tomato seedlings": {"tested_on": "tomato seedlings", "test": "Phytotoxicity on tomato seedlings in pots, drenching treatment, observed with the naked eye", "settings": "50 ml drench, 1 week after treatment", "protocol": "Sterilized soil was uniformly mixed, 300 g thereof was then placed in each pot, and tomato seedlings not infected with root-knot nematodes were transplanted thereto.\nSterilized soil was uniformly mixed, 300 g thereof was then placed in each pot, and tomato seedlings not infected with root-knot nematodes were transplanted thereto. The sample prepared in Example 4 was diluted to a standard amount or a multiple thereof for each treatment group, and then 50 ml thereof was used for drenching treatment."}, "root-lesion nematodes": {"tested_on": "root-lesion nematodes", "test": "Petri dish nematocidal activity on root-lesion nematodes", "settings": "geraniol 2,000 ppm; for Number of killed nematodes: 15 root-lesion nematodes", "from_the_text": "(§1) Petri dishes, followed by measurement of nematocidal activity."}, "spiral nematodes": {"tested_on": "spiral nematodes", "test": "Petri dish nematocidal activity on spiral nematodes", "settings": "geraniol 2,000 ppm; for Number of killed nematodes: 15 spiral nematodes", "from_the_text": "as §1"}, "cyst nematodes": {"tested_on": "cyst nematodes", "test": "Petri dish nematocidal activity on cyst nematodes", "settings": "geraniol 2,000 ppm; for Number of killed nematodes: 15 cyst nematodes", "from_the_text": "as §1"}}, "note": "Marks after values point to notes of the source that are not given here."}
{"molecule": "O=C1CCC[C@@H]2[C@H]3CCC[N+]4([O-])CCC[C@@H](CN12)[C@@H]34", "note": "(stereo partly shown) [Oxymatrine, oxymatrine, reference compound]", "values": [{"measurement": "Number of killed root-knot nematodes", "setting": "[1]; 2,000 ppm, 1 day", "value": 7}, {"measurement": "Number of killed root-knot nematodes", "setting": "[1]; 2,000 ppm, 2 days", "value": 9}, {"measurement": "Number of killed root-knot nematodes", "setting": "[1]; 2,000 ppm, 3 days", "value": 10}, {"measurement": "Nematocidal efficiency (%)", "setting": "[1]; 2,000 ppm", "value": 66.7, "unit": "%"}]}
{"molecule": "CC(C)=CCC/C(C)=C/CO", "note": "[Geraniol, geraniol]", "values": [{"measurement": "Number of killed root-knot nematodes", "setting": "[1]; 100 ppm, 1 day", "value": 5}, {"measurement": "Number of killed root-knot nematodes", "setting": "[1]; 100 ppm, 2 days", "value": 7}, {"measurement": "Number of killed root-knot nematodes", "setting": "[1]; 100 ppm, 3 days", "value": 7}, {"measurement": "Nematocidal efficiency (%)", "setting": "[1]; 100 ppm", "value": 46.7, "unit": "%"}, {"measurement": "Number of killed root-knot nematodes", "setting": "[1]; 200 ppm, 1 day", "value": 5}, {"measurement": "Number of killed root-knot nematodes", "setting": "[1]; 200 ppm, 2 days", "value": 7}, {"measurement": "Number of killed root-knot nematodes", "setting": "[1]; 200 ppm, 3 days", "value": 13}, {"measurement": "Nematocidal efficiency (%)", "setting": "[1]; 200 ppm", "value": 86.7, "unit": "%"}, {"measurement": "Number of killed root-knot nematodes", "setting": "[1]; 333 ppm, 1 day", "value": 5}, {"measurement": "Number of killed root-knot nematodes", "setting": "[1]; 333 ppm, 2 days", "value": 6}, {"measurement": "Number of killed root-knot nematodes", "setting": "[1]; 333 ppm, 3 days", "value": 15}, {"measurement": "Nematocidal efficiency (%)", "setting": "[1]; 333 ppm", "value": 100, "unit": "%"}, {"measurement": "Number of killed root-knot nematodes", "setting": "[1]; 500 ppm, 1 day", "value": 5}, {"measurement": "Number of killed root-knot nematodes", "setting": "[1]; 500 ppm, 2 days", "value": 10}, {"measurement": "Number of killed root-knot nematodes", "setting": "[1]; 500 ppm, 3 days", "value": 15}, {"measurement": "Nematocidal efficiency (%)", "setting": "[1]; 500 ppm", "value": 100, "unit": "%"}, {"measurement": "Number of killed root-knot nematodes", "setting": "[1]; 1,000 ppm, 1 day", "value": 10}, {"measurement": "Number of killed root-knot nematodes", "setting": "[1]; 1,000 ppm, 2 days", "value": 15}, {"measurement": "Nematocidal efficiency (%)", "setting": "[1]; 1,000 ppm", "value": 100, "unit": "%"}, {"measurement": "Nematocidal efficiency (%)", "setting": "[1]; 2,000 ppm", "value": 100, "unit": "%"}, {"measurement": "Number of killed root-knot nematodes", "setting": "[1]; 3,000 ppm, 1 day", "value": 15}, {"measurement": "Nematocidal efficiency (%)", "setting": "[1]; 3,000 ppm", "value": 100, "unit": "%"}, {"measurement": "Number of killed root-knot nematodes", "setting": "[1]; 10,000 ppm, 1 day", "value": "15^a"}, {"measurement": "Nematocidal efficiency (%)", "setting": "[1]; 10,000 ppm", "value": 100, "unit": "%"}, {"measurement": "Nematocidal efficiency on root-knot nematodes (%)", "setting": "[1]; 1 day", "value": 72.5, "unit": "%"}, {"measurement": "Nematocidal efficiency on root-knot nematodes (%)", "setting": "[1]; 2 days", "value": 93.6, "unit": "%"}, {"measurement": "Nematocidal efficiency on root-knot nematodes (%)", "setting": "[1]; 3 days", "value": 100.0, "unit": "%"}, {"measurement": "Nematocidal effect of geraniol alone relative to palmarosa oil containing the same amount of geraniol", "setting": "[1]; same geraniol content (685 ppm)", "value": "about 4.2 times"}, {"measurement": "Extent of phytotoxicity (0-5)", "setting": "tomato seedlings; 100 ppm", "value": 0}, {"measurement": "Phytotoxicity symptom", "setting": "tomato seedlings; 100 ppm", "value": "No"}, {"measurement": "Extent of phytotoxicity (0-5)", "setting": "tomato seedlings; 200 ppm", "value": 0}, {"measurement": "Phytotoxicity symptom", "setting": "tomato seedlings; 200 ppm", "value": "No"}, {"measurement": "Extent of phytotoxicity (0-5)", "setting": "tomato seedlings; 330 ppm", "value": 0}, {"measurement": "Phytotoxicity symptom", "setting": "tomato seedlings; 330 ppm", "value": "No"}, {"measurement": "Extent of phytotoxicity (0-5)", "setting": "tomato seedlings; 500 ppm", "value": 0}, {"measurement": "Phytotoxicity symptom", "setting": "tomato seedlings; 500 ppm", "value": "No"}, {"measurement": "Extent of phytotoxicity (0-5)", "setting": "tomato seedlings; 1,000 ppm", "value": 0}, {"measurement": "Phytotoxicity symptom", "setting": "tomato seedlings; 1,000 ppm", "value": "No"}, {"measurement": "Extent of phytotoxicity (0-5)", "setting": "tomato seedlings; 2,000 ppm", "value": 0}, {"measurement": "Phytotoxicity symptom", "setting": "tomato seedlings; 2,000 ppm", "value": "No"}, {"measurement": "Extent of phytotoxicity (0-5)", "setting": "tomato seedlings; 3,000 ppm", "value": 0}, {"measurement": "Phytotoxicity symptom", "setting": "tomato seedlings; 3,000 ppm", "value": "No"}, {"measurement": "Extent of phytotoxicity (0-5)", "setting": "tomato seedlings; 4,000 ppm", "value": 5}, {"measurement": "Phytotoxicity symptom", "setting": "tomato seedlings; 4,000 ppm", "value": "Withered"}, {"measurement": "Extent of phytotoxicity (0-5)", "setting": "tomato seedlings; 5,000 ppm", "value": 5}, {"measurement": "Phytotoxicity symptom", "setting": "tomato seedlings; 5,000 ppm", "value": "Withered"}, {"measurement": "Extent of phytotoxicity (0-5)", "setting": "tomato seedlings; 10,000 ppm", "value": 5}, {"measurement": "Phytotoxicity symptom", "setting": "tomato seedlings; 10,000 ppm", "value": "Withered"}, {"measurement": "Extent of phytotoxicity (0-5)", "setting": "tomato seedlings; 20,000 ppm", "value": 5}, {"measurement": "Phytotoxicity symptom", "setting": "tomato seedlings; 20,000 ppm", "value": "Withered"}, {"measurement": "Number of killed nematodes", "setting": "root-lesion nematodes; 1 day", "value": "14^a"}, {"measurement": "Number of killed nematodes", "setting": "root-lesion nematodes; 2 days", "value": 15}, {"measurement": "Nematocidal efficiency", "setting": "root-lesion nematodes; within 3 days", "value": 100, "unit": "%"}, {"measurement": "Number of killed nematodes", "setting": "spiral nematodes; 1 day", "value": 7}, {"measurement": "Number of killed nematodes", "setting": "spiral nematodes; 2 days", "value": 9}, {"measurement": "Number of killed nematodes", "setting": "spiral nematodes; 3 days", "value": 13}, {"measurement": "Nematocidal efficiency", "setting": "spiral nematodes; within 3 days", "value": 86.7, "unit": "%"}, {"measurement": "Number of killed nematodes", "setting": "cyst nematodes; 1 day", "value": 8}, {"measurement": "Number of killed nematodes", "setting": "cyst nematodes; 2 days", "value": 11}, {"measurement": "Number of killed nematodes", "setting": "cyst nematodes; 3 days", "value": 12}, {"measurement": "Nematocidal efficiency", "setting": "cyst nematodes; within 3 days", "value": 80, "unit": "%"}]}
{"molecule": "C/C=C(\\C)C(=O)O[C@H]1C[C@@H](OC(C)=O)[C@@]2(C(=O)OC)CO[C@H]3[C@@H](O)[C@@](C)([C@]45O[C@@]4(C)[C@H]4C[C@@H]5O[C@@H]5OC=C[C@@]54O)[C@H]4[C@]1(CO[C@]4(O)C(=O)OC)[C@@H]32", "note": "[Azadirachtin, azadirachtin, reference compound]", "values": [{"measurement": "Number of killed root-knot nematodes", "setting": "[1]; 2,000 ppm, 1 day", "value": 7}, {"measurement": "Number of killed root-knot nematodes", "setting": "[1]; 2,000 ppm, 2 days", "value": 8}, {"measurement": "Number of killed root-knot nematodes", "setting": "[1]; 2,000 ppm, 3 days", "value": 10}, {"measurement": "Nematocidal efficiency (%)", "setting": "[1]; 2,000 ppm", "value": 66.7, "unit": "%"}]}
{"molecule": "pyrethrin [reference compound]", "values": [{"measurement": "Number of killed root-knot nematodes", "setting": "[1]; 2,000 ppm, 1 day", "value": 5}, {"measurement": "Number of killed root-knot nematodes", "setting": "[1]; 2,000 ppm, 2 days", "value": 6}, {"measurement": "Number of killed root-knot nematodes", "setting": "[1]; 2,000 ppm, 3 days", "value": 11}, {"measurement": "Nematocidal efficiency (%)", "setting": "[1]; 2,000 ppm", "value": 73.3, "unit": "%"}]}
